Experimental data reported in US20240158446A1, “CYCLIC COMPOUND HAVING SELECTIVE INHIBITORY ACTION ON KRAS OVER HRAS AND NRAS” (CHUGAI SEIYAKU KABUSHIKI KAISHA, priority 2021, published 2024).
Where a SMILES comes first, the peptide text is derived from it. Bridges are numbered along the chain shown (N, C = ends). [ ]: non-standard residue; d: D form. The star is where a group is joined. hPhe(3-Cl-4-CF3) = N[C@@H](CCc1ccc(C(F)(F)F)c(Cl)c1)C(=O)O; NPrPhe(4-CF3) = CCCN[C@@H](Cc1ccc(C(F)(F)F)cc1)C(=O)O; NMeGly(cPent) = CN[C@H](C(=O)O)C1CCCC1; Ac4c(3,3-Me2) = CC1(C)CC(N)(C(=O)O)C1; NMeD = CN[C@@H](CC(=O)O)C(=O)O; NMeL = CN[C@@H](CC(C)C)C(=O)O; Morpholide = C1CN(*)CCO1; Sar = CNCC(=O)O

Experiments:
[1] = target: GDP-bound KRAS wild-type protein (Homo sapiens, UniProt P01116); assay: Binding to KRAS by surface plasmon resonance (SPR), Single Cycle Kinetics; conditions: SPR, Single Cycle Kinetics, GDP-bound KRAS wild-type protein; read-out: KRAS KD
GDP-bound KRAS wild-type protein, sequence (P01116 whole entry): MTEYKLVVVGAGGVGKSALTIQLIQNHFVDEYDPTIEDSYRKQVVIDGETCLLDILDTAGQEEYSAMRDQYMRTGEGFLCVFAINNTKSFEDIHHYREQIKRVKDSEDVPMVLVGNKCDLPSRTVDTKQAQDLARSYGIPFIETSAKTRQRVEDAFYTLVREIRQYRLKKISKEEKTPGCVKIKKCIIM

[2] = target: GDP-bound NRAS wild-type protein (Homo sapiens, UniProt P01111); assay: Binding to NRAS by surface plasmon resonance (SPR), Single Cycle Kinetics; conditions: ratio of KD for GDP-bound NRAS wild-type protein to KD for KRAS, SPR
GDP-bound NRAS wild-type protein, sequence (P01111 whole entry): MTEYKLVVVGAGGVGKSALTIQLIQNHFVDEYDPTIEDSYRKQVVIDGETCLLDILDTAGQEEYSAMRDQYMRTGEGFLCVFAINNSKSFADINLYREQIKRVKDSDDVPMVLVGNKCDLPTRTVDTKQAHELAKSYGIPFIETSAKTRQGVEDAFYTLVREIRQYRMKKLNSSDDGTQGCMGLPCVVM

[3] = target: GDP-bound HRAS wild-type protein (Homo sapiens, UniProt P01112); assay: Binding to HRAS by surface plasmon resonance (SPR), Single Cycle Kinetics; conditions: ratio of KD for GDP-bound HRAS wild-type protein to KD for KRAS, SPR
GDP-bound HRAS wild-type protein, sequence (P01112 whole entry): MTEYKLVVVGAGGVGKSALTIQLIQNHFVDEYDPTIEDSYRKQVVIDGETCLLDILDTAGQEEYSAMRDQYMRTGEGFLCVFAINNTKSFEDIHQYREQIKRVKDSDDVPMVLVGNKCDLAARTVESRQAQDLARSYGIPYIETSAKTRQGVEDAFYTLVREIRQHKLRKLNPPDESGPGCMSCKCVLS

[4] = system: human lung cancer strain NCI-H441; assay: cells; conditions: NCI-H441, 96 h, read-out: NCI-H441 IC50 (nM), NCI-H441 cell proliferation, 4 days, CellTiter-Glo;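 also: cell proliferation inhibition after four days measured by CellTiter-Glo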

CCC[C@H]1C(=O)N[C@@H]([C@@H](C)CC)C(=O)N(C)CC(=O)N(C)[C@H]2C/C=C\CCN(C2=O)[C@@H](Cc2ccc(C(F)(F)F)cc2)C(=O)N(C)CC(=O)N[C@@H](CCc2cc(F)c(C(F)(F)F)c(F)c2)C(=O)N2C[C@H](OCC)C[C@H]2C(=O)NC2(CC(C)(C)C2)C(=O)N(C)[C@@H](C2CCCC2)C(=O)N(C)[C@H](C(=O)N(C)CC)CC(=O)N1C [PP1646]
Kd [1]: 0.12 nM
NRAS/KRAS (KD ratio) [2]: A (a compound having 10 or more and less than 20 is denoted as A)
HRAS/KRAS (KD ratio) [3]: A (a compound having 10 or more and less than 20 is denoted as A)
IC50 [4]: 2.8 nM

CC[C@H](C)[C@@H]1NC(=O)[C@H](C(C)C)N(C)C(=O)C[C@@H](C(=O)N(C)CC)N(C)C(=O)[C@H](C2CCCC2)N(C)C(=O)C2(CC(C)(C)C2)NC(=O)[C@@H]2C[C@H](C)CN2C(=O)[C@H](CCc2ccc(C(F)(F)F)c(OC)c2)NC(=O)CN(C)C(=O)[C@H](Cc2ccc(C(F)(F)F)cc2)N2CC/C=C\C[C@@H](C2=O)N(C)C(=O)CN(C)C1=O [PP2003]
Kd [1]: 0.34 nM
NRAS/KRAS (KD ratio) [2]: A (a compound having 10 or more and less than 20 is denoted as A)
HRAS/KRAS (KD ratio) [3]: B (a compound having 3 or more and less than 10 is denoted as B)
IC50 [4]: 11.3 nM

CCC[C@H]1C(=O)N[C@@H]([C@@H](C)CC)C(=O)N(C)CC(=O)N(C)[C@H]2C/C=C\CCN(C2=O)[C@@H](Cc2ccc(C)cc2)C(=O)N(C)CC(=O)N[C@@H](CCc2ccc(C(F)(F)F)c(OC)c2)C(=O)N2C[C@H](C)C[C@H]2C(=O)NC2(CC(C)(C)C2)C(=O)N(C)[C@@H](C2CCCC2)C(=O)N(C)[C@H](C(=O)N(C)CC)CC(=O)N1C [PP1891]
Kd [1]: 0.29 nM
NRAS/KRAS (KD ratio) [2]: A (a compound having 10 or more and less than 20 is denoted as A)
HRAS/KRAS (KD ratio) [3]: A (a compound having 10 or more and less than 20 is denoted as A)
IC50 [4]: 2.6 nM

CC[C@H](C)[C@@H]1NC(=O)[C@H](CC2CCC2)N(C)C(=O)C[C@@H](C(=O)N(C)C)N(C)C(=O)[C@H](C2CCCC2)N(C)C(=O)C2(CC(C)(C)C2)NC(=O)[C@@H]2CCCN2C(=O)[C@H](CCc2cc(F)c(C(F)(F)F)c(F)c2)NC(=O)CN(C)C(=O)[C@H](Cc2ccc(C(F)(F)F)cc2)N2CC/C=C\C[C@@H](C2=O)N(C)C(=O)CN(C)C1=O [PP1728]
Kd [1]: 0.16 nM
NRAS/KRAS (KD ratio) [2]: A (a compound having 10 or more and less than 20 is denoted as A)
HRAS/KRAS (KD ratio) [3]: A (a compound having 10 or more and less than 20 is denoted as A)
IC50 [4]: 18.3 nM

CCC[C@H]1C(=O)N[C@@H]([C@@H](C)CC)C(=O)N(C)CC(=O)N(C)[C@H]2C/C=C\CCN(C2=O)[C@@H](Cc2ccc(C(F)(F)F)cc2)C(=O)N(C)CC(=O)N[C@@H](CCc2cc(F)c(C(F)(F)F)c(F)c2)C(=O)N2C[C@@H](C)C[C@H]2C(=O)NC2(CC(C)(C)C2)C(=O)N(C)[C@@H](C2CCCC2)C(=O)N(C)[C@H](C(=O)N(C)C)CC(=O)N1C [PP1683]
Kd [1]: 0.097 nM
NRAS/KRAS (KD ratio) [2]: A (a compound having 10 or more and less than 20 is denoted as A)
HRAS/KRAS (KD ratio) [3]: A (a compound having 10 or more and less than 20 is denoted as A)
IC50 [4]: 2.5 nM

CCCOC[C@H]1C(=O)N[C@@H]([C@@H](C)CC)C(=O)N(C)CC(=O)N(C)[C@H]2C/C=C\CCN(C2=O)[C@@H](Cc2ccc(C(F)(F)F)cc2)C(=O)N(C)CC(=O)N[C@@H](CCc2ccc(C(F)(F)F)c(Cl)c2)C(=O)N2C[C@H](OCC)C[C@H]2C(=O)NC2(CC(C)(C)C2)C(=O)N(C)[C@@H](C2CCCC2)C(=O)N(C)[C@H](C(=O)N(C)C)CC(=O)N1C [PP1754]
Kd [1]: 0.064 nM
NRAS/KRAS (KD ratio) [2]: A (a compound having 10 or more and less than 20 is denoted as A)
HRAS/KRAS (KD ratio) [3]: A (a compound having 10 or more and less than 20 is denoted as A)
IC50 [4]: 3 nM

CCCC[C@H]1C(=O)N[C@@H]([C@@H](C)CC)C(=O)N(C)CC(=O)N(C)[C@H]2C/C=C\CCN(C2=O)[C@@H](Cc2ccc(C(F)(F)F)cc2)C(=O)N(C)CC(=O)N[C@@H](CCc2cc(F)c(C(F)(F)F)c(F)c2)C(=O)N2CC(F)(F)C[C@H]2C(=O)NC2(CC(C)(C)C2)C(=O)N(C)[C@@H](C2CCCC2)C(=O)N(C)[C@H](C(=O)N(C)C)CC(=O)N1C [PP1714]
Kd [1]: 0.1 nM
NRAS/KRAS (KD ratio) [2]: A (a compound having 10 or more and less than 20 is denoted as A)
HRAS/KRAS (KD ratio) [3]: A (a compound having 10 or more and less than 20 is denoted as A)
IC50 [4]: 4.3 nM

CCCN(C)C(=O)[C@@H]1CC(=O)N(C)[C@@H](CC(F)(F)F)C(=O)N[C@@H]([C@@H](C)CC)C(=O)N(C)CC(=O)N(C)[C@H]2C/C=C\CCN(C2=O)[C@@H](Cc2ccc(C(F)(F)F)cc2)C(=O)N(C)CC(=O)N[C@@H](CCc2cc(F)c(C(F)(F)F)c(F)c2)C(=O)N2C[C@H](OCC)C[C@H]2C(=O)NC2(CCC2)C(=O)N(C)[C@@H](C2CCCC2)C(=O)N1C [PP1702]
Kd [1]: 0.085 nM
NRAS/KRAS (KD ratio) [2]: A (a compound having 10 or more and less than 20 is denoted as A)
HRAS/KRAS (KD ratio) [3]: A (a compound having 10 or more and less than 20 is denoted as A)
IC50 [4]: 4.9 nM

CC[C@H](C)[C@@H]1NC(=O)[C@H](CC(C)C)N(C)C(=O)C[C@@H](C(=O)N(C)C)N(C)C(=O)[C@H](C2CCCC2)N(C)C(=O)C2(CCC2)NC(=O)[C@@H]2C[C@@H](C)CN2C(=O)[C@H](CCc2ccc(C(F)(F)F)c(Cl)c2)NC(=O)CN(C)C(=O)[C@H](Cc2ccc(C)cc2)N2CC/C=C\C[C@@H](C2=O)N(C)C(=O)CN(C)C1=O [PP1854]
Kd [1]: 0.096 nM
NRAS/KRAS (KD ratio) [2]: A (a compound having 10 or more and less than 20 is denoted as A)
HRAS/KRAS (KD ratio) [3]: A (a compound having 10 or more and less than 20 is denoted as A)
IC50 [4]: 5.2 nM

CCCN(C)C(=O)[C@@H]1CC(=O)N(C)[C@@H](CC(C)C)C(=O)N[C@@H]([C@@H](C)OC)C(=O)N(C)CC(=O)N(C)[C@H]2C/C=C\CCN(C2=O)[C@@H](Cc2ccc(C(F)(F)F)cc2)C(=O)N(C)CC(=O)N[C@@H](CCc2cc(F)c(C(F)(F)F)c(F)c2)C(=O)N2C[C@H](OCC)C[C@H]2C(=O)NC2(CC(C)(C)C2)C(=O)N(C)[C@@H](C2CCCC2)C(=O)N1C [PP1917]
Kd [1]: 0.29 nM
NRAS/KRAS (KD ratio) [2]: A (a compound having 10 or more and less than 20 is denoted as A)
HRAS/KRAS (KD ratio) [3]: A (a compound having 10 or more and less than 20 is denoted as A)
IC50 [4]: 22.5 nM

CCCN1C(=O)CN(C)C(=O)CN(C)C(=O)[C@H]([C@@H](C)OC)NC(=O)[C@H](CC(C)C)N(C)C(=O)C[C@@H](C(=O)N2CCOCC2)N(C)C(=O)[C@H](C2CCCC2)N(C)C(=O)C2(CC(C)(C)C2)NC(=O)[C@@H]2CCCN2C(=O)[C@H](CCc2ccc(C(F)(F)F)c(Cl)c2)NC(=O)CN(C)C(=O)[C@@H]1Cc1ccc(C(F)(F)F)cc1 [PP1963] ([NMeL]T(Me)[Sar][Sar][NPrPhe(4-CF3)][Sar][hPhe(3-Cl-4-CF3)]P[Ac4c(3,3-Me2)][NMeGly(cPent)][NMeD]-Morpholide; lactam N-11)
Kd [1]: 0.18 nM
NRAS/KRAS (KD ratio) [2]: B (a compound having 3 or more and less than 10 is denoted as B)
HRAS/KRAS (KD ratio) [3]: C (A compound having a KD ratio of 0.1 or more and less than 3 is denoted as C)
IC50 [4]: 9.1 nM
